Laboratory results as given in US10280171B2, “Heterocyclic inhibitors of PTPN11” (priority 2016, dated 2019).

target: PTPN11-E76K mutant enzyme (Homo sapiens (Human), UniProt Q06124, E76K); assay: PTPN11 Enzymatic Assay (DiFMUP phosphatase activity); type: biochemical; settings: full length PTPN11-E76K mutant enzyme 250 pM, DiFMUP 50 μM, 30 min preincubation; read-out: PTPN11-E76K Avg IC50
Procedure: Reaction was initiated by addition of DiFMUP (50 μM) at room temperature in 384-well black plate with a final reaction volume of 20 uL in assay buffer. […] Dose-response curves were analyzed using IC50 regression curve fitting (GeneData Screener). Curves were normalized to a high controls without inhibitor, and low controls without enzyme.

Sequence of PTPN11-E76K mutant enzyme (Q06124 whole entry E76K): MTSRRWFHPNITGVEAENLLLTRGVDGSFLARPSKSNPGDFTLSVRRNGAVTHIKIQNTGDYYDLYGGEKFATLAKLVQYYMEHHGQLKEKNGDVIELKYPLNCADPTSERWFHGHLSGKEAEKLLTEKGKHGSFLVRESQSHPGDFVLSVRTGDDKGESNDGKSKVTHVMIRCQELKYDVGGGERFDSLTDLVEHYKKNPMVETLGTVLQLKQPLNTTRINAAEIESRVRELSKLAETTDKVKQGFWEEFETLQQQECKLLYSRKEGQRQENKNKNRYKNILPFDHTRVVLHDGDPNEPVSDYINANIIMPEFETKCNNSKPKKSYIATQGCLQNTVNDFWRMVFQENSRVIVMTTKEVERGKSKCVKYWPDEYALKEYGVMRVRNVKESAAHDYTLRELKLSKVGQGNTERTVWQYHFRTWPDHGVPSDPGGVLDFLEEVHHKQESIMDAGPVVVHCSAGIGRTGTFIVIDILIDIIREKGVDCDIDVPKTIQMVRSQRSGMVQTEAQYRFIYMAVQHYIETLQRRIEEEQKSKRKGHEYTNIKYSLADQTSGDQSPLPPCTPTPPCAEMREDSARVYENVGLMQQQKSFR

Point of comparison: COc1cc(-c2n[nH]c3nc(N4CCC5(CCC[C@H]5N)CC4)cnc23)ccc1Cl [Example 34, (R)-8-(3-(4-chloro-3-methoxyphenyl)-1H-pyrazolo[3,4-b]-pyrazin-6-yl)-8-aza-spiro[4.5]decan-1-amine], IC50 102 nM. Against it:
- Cc1c(-c2n[nH]c3nc(N4CCC(C)(CN)CC4)cnc23)ccnc1N [Example 124, 4-(6-(4-(Aminomethyl)-4-methylpiperidin-1-yl)-1H-pyrazolo[3,4-b]pyrazin-3-yl)-3-methylpyridin-2-amine] — 3.7-fold higher, 377 nM

system: Phospho-ERK levels in KYSE-520 cells; assay: pERK AlphaScreen Protocol; type: cell-based; settings: Homo sapiens, KYSE-520, 2 h, KYSE-520 cells, 2 hr compound incubation, phospho-ERK1/2 AlphaScreen SureFire; read-out: PERK Avg IC50
Procedure: KYSE-520 cells (10 k cells/well) were grown in 384-well plate in 20 uL of medium (RPMI-1640, without phenol red, containing 10% FBS) at 37° C. with 5% CO2 overnight. DMSO (control) or increasing concentrations of compounds were diluted in medium, added to the 384-well plate (5 uL/well, final DMSO concentration of 1%), and cells were then incubated with compounds for 2 hr. Phospho-ERK levels were measured using phospho-ERK1/2 AlphaScreen SureFire (PerkinElmer, TGRESB10K) following manufacturer's recommendations. Dose-response curves were analyzed using IC50 regression curve fitting (GeneData Screener). Curves were normalized to a high control without inhibitor (DMSO only), and low control (1 μM selumetinib).

Point of comparison: NC1(CO)CCN(c2cnc3c(-c4cccnc4Cl)n[nH]c3n2)CC1 [Example 59, (4-amino-1-(3-(2-chloropyridin-3-yl)-1H-pyrazolo[3,4-b]pyrazin-6-yl)-piperidin-4-yl)-methanol], IC50 1040 nM. Against it:
- N[C@@H]1CCCC12CCN(c1cnc3c(-c4cccnc4Cl)n[nH]c3n1)CC2 [Example 53, (R)-8-(3-(2-chloro-pyridin-3-yl)-1H-pyrazolo[3,4-b]-pyrazin-6-yl)-8-aza-spiro[4.5]decan-1-amine] — 4.6-fold lower, 224 nM
- CNc1nccc(-c2n[nH]c3nc(N4CCC(C)(N)CC4)cnc23)c1Cl [Example 112, 4-(6-(4-Amino-4-methylpiperidin-1-yl)-1H-pyrazolo[3,4-b]pyrazin-3-yl)-3-chloro-N-methylpyridin-2-amine] — 18-fold lower, 58 nM
- CC1(N)CCN(c2cnc3c(-c4c(F)cccc4Cl)n[nH]c3n2)CC1 [Example 32, 1-(3-(2-chloro-6-fluorophenyl)-1H-pyrazolo[3,4-b]-pyrazin-6-yl)-4-methylpiperidin-4-amine] — 3.7-fold lower, 284 nM
- Nc1nccc(-c2n[nH]c3nc(N4CCC5(CCC5N)CC4)cnc23)c1Cl (centres unmarked) [Example 115, 7-(3-(2-Amino-3-chloropyridin-4-yl)-1H-pyrazolo[3,4-b]pyrazin-6-yl)-7-azaspiro[3.5]nonan-1-amine] — 2.4-fold lower, 427 nM
- NC1(CO)CCN(c2cnc3c(-c4cccc(F)c4Cl)n[nH]c3n2)CC1 [Example 62, (4-amino-1-(3-(2-chloro-3-fluoro-phenyl)-1H-pyrazolo[3,4-b]-pyrazin-6-yl)-piperidin-4-yl)-methanol] — 3.4-fold lower, 310 nM
- NCC1(O)CCN(c2cnc3c(-c4c(F)cccc4Cl)n[nH]c3n2)CC1 [Example 63, 4-(aminomethyl)-1-(3-(2-chloro-6-fluorophenyl)-1H-pyrazolo [3,4-b]-pyrazin-6-yl)-piperidin-4-ol] — 1.5-fold lower, 687 nM
- Nc1nccc(-c2n[nH]c3nc(N4CCC5(CCC5N)CC4)cnc23)c1Cl (single isomer, unassigned; enantiomer 1) [Example 136a, 7-[3-(2-amino-3-chloropyridine-4-yl)-1H-pyrazolo[3,4-b]-pyrazin-6-yl]-7-aza-spiro[3.5]nonan-1-amine, enantiomer 1] — 2.2-fold higher, 2270 nM
- N[C@@H]1CCCC12CCN(c1cnc3c(-c4ccc(Cl)c(Cl)c4)n[nH]c3n1)CC2 [Example 46, (R)-8-(3-(3,4-dichloro-phenyl)-1H-pyrazolo[3,4-b]-pyrazin-6-yl)-8-aza-spiro[4.5]decan-1-amine] — 1.6-fold lower, 666 nM
- N[C@@H]1COCC12CCN(c1cnc3c(-c4cccc(Cl)c4Cl)n[nH]c3n1)CC2 [Example 38, (S)-8-(3-(2,3-Dichlorophenyl)-1H-pyrazolo[3,4-b]pyrazin-6-yl)-2-oxa-8-azaspiro[4.5]-decan-4-amine] — 26-fold lower, 40 nM
- N[C@@H]1COCC12CCN(c1cnc3c(-c4cccc(F)c4Cl)n[nH]c3n1)CC2 [Example 42, (S)-8-(3-(2-chloro-3-fluorophenyl)-1H-pyrazolo[3,4-b]-pyrazin-6-yl)-2-oxa-8-azaspiro[4.5]-decan-4-amine] — 17-fold lower, 63 nM

same assay, conditions: KYSE-520 cells, 2 hr compound incubation, phospho-ERK1/2 AlphaScreen SureFire; read-out: PERK Avg IC50

Work on Nc1nccc(-c2n[nH]c3nc(N4CCC5(CCC5N)CC4)cnc23)c1Cl (single isomer, unassigned; enantiomer 2) [Example 136b, 7-[3-(2-amino-3-chloropyridin-4-yl)-1H-pyrazolo-[3,4-b]-pyrazin-6-yl]-7-aza-spiro[3.5]nonan-1-amine, enantiomer 2] yielded an IC50 of 1960 nM.
